# Data taken from patent US20250340563A1, “FUSED PYRIDAZINE DERIVATIVES AS NLRP3 INHIBITORS” (Takeda Pharmaceutical Company Limited, priority 2022, published 2025).
# Molecular target: NLRP3 inflammasome (Homo sapiens, UniProt Q96P20)
# Test: IL-1β assay in IFN-γ-differentiated, LPS-primed, ATP-activated THP-1 cells (ELISA)
# Format: cell-based
# Settings: 50 ng/mL LPS priming, 2.5 mM ATP activation, 2 hours
# Method: Monocytic THP-1 cells (ATCC: TIB-202) are maintained in accordance with the provider's instructions in RPMI media (Life Technologies, Cat #A10491-01); RPMI is supplemented with 10% heat inactivated fetal bovine serum (Hyclone Cat #SH30396.03). The cells are differentiated into macrophages by the addition of 25 ng/mL IFN-7 (PeproTech, Cat #300-02-100UG) for 24 hours at 37° C./5% CO2. Media is exchanged with fresh media with no FBS, and the cells are treated with 50 ng/mL LPS (priming step) for 24 hours at 37° C./5% CO2 (LPS-EK: Invivogen, Cat #tlrl-peklps). Media is exchanged with fresh media with no FBS. The cells are plated at 40,000 cells per well in 384-well flat-bottom cell culture plates (Costar 3764) containing compounds (added in 1:1000) in a 1:3.16 serial dilution series in DMSO and are incubated for 30 minutes at 37° C./5% CO2. The NLRP3 inflammasome is activated with the addition of 2.5 mM ATP (Sigma Cat #A3377) and the cells are incubated for 2 hours at 37° C./5% CO2. At the end of the incubation period, 40 μL supernatant is removed, and […] are monitored using an ELISA (Human […], R&D systems, Cat #DY201) in accordance with the manufacturer's instructions.
# The IC50 values are calculated from a plot of percentage of inhibition versus the inhibitor concentration by a logistics curve fit according to: Y=[Bottom+(Top−Bottom)]/(1+10^[(Log IC50−X)·Hill Slope], where Y is the % inhibition at the inhibitor concentration, X, “Bottom” is the lowest inhibition value, i.e. 0%, “Top” is the maximum inhibition value, i.e. 100%, and the “Hill Slope” describes the slope of the sigmoidal curve between the “Bottom” and “Top” values. The curve fitting was conducted with internally developed software.
# Sequence of NLRP3 inflammasome (Q96P20 whole entry): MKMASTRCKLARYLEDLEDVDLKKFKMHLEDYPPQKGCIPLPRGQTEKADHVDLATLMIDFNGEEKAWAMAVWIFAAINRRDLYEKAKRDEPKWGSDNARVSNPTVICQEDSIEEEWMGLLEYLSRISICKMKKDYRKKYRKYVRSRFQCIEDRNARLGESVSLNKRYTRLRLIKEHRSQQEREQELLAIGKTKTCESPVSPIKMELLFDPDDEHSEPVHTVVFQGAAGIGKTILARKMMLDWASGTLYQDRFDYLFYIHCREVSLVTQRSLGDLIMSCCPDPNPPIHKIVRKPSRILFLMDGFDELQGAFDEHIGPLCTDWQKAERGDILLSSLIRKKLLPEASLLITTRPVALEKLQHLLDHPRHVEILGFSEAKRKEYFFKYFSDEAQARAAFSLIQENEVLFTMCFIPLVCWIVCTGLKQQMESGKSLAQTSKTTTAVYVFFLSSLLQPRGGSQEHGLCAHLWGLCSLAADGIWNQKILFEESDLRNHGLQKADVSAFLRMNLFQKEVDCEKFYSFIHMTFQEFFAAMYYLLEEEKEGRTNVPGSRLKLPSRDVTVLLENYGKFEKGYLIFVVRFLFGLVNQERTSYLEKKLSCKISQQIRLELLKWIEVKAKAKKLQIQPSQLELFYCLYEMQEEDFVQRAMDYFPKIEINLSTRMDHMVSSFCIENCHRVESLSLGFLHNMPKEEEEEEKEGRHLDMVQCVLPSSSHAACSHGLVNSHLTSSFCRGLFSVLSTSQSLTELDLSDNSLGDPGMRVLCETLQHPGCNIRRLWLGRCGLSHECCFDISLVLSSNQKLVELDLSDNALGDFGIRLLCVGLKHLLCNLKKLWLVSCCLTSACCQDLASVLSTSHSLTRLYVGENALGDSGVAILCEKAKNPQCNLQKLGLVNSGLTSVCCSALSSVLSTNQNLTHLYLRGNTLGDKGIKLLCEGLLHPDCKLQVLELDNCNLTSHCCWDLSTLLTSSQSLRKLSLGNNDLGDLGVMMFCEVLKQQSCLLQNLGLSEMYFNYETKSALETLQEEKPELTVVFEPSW
row,IC50 [nM],Compound
1,1200,"F[C@@H]1C[C@@H](Nc2nnc(-c3ccc(Cl)cc3)c3ccccc23)CN(C2CC2)C1 [Example 54, 4-(4-chlorophenyl)-N-((3R,5R)-1-cyclopropyl-5-fluoropiperidin-3-yl)phthalazin-1-amine]"
2,575,"COc1ccc(-c2nnc(N[C@@H]3C[C@@H](F)CN(C4CC4)C3)c3ccccc23)cc1 [Example 55, N-((3R,5R)-1-cyclopropyl-5-fluoropiperidin-3-yl)-4-(4-methoxyphenyl)phthalazin-1-amine]"
3,21,"COc1ccc(-c2nnc(N[C@@H]3CCCN(C)C3)c3cnccc23)c(F)c1 [Example 57, (R)-1-(2-fluoro-4-methoxyphenyl)-N-(1-methylpiperidin-3-yl)pyrido[3,4-d]pyridazin-4-amine]"
4,134,"COc1ccc(-c2nnc(N[C@@H]3CCCN(CCF)C3)c3ccccc23)c(F)c1 [Example 61, (R)-4-(2-fluoro-4-methoxyphenyl)-N-(1-(2-fluoroethyl)piperidin-3-yl)phthalazin-1-amine]"
5,3550,"CN1CCCC(Nc2nnc(-c3ccc(Cl)cc3)c3cnccc23)C1 (centres unmarked) [Example 62, 4-(4-chlorophenyl)-N-(1-methylpiperidin-3-yl)pyrido[3,4-d]pyridazin-1-amine]"
6,381,"CN1CCCC(Nc2nnc(-c3ccc(Cl)cc3)c3ccncc23)C1 (centres unmarked) [Example 63, 1-(4-chlorophenyl)-N-(1-methylpiperidin-3-yl)pyrido[3,4-d]pyridazin-4-amine]"
7,1220,"CN1CCC[C@H](Nc2nnc(-c3ccc(Cl)cc3)c3ccncc23)C1 [Example 65, (S)-1-(4-chlorophenyl)-N-(1-methylpiperidin-3-yl)pyrido[3,4-d]pyridazin-4-amine]"
8,838,"CN1CCCC(Nc2nnc(-c3ccc(Cl)cc3F)c3cnccc23)C1 (centres unmarked) [Example 69, 4-(4-chloro-2-fluorophenyl)-N-(1-methylpiperidin-3-yl)pyrido[3,4-d]pyridazin-1-amine]"
9,2000,"CN1CCC[C@H](Nc2nnc(-c3ccc(Cl)cc3F)c3ccncc23)C1 [Example 70, (S)-1-(4-chloro-2-fluorophenyl)-N-(1-methylpiperidin-3-yl)pyrido[3,4-d]pyridazin-4-amine]"
10,1510,"Cc1nccc2c(NC3CCCN(C)C3)nnc(-c3ccc(Cl)cc3)c12 (centres unmarked) [Example 77, 4-(4-chlorophenyl)-5-methyl-N-(1-methylpiperidin-3-yl)pyrido[3,4-d]pyridazin-1-amine]"
11,183,"COc1ccc(-c2nnc(N[C@@H]3CCCN(C)C3)c3c(C)nccc23)c(O)c1 [Example 78, (R)-5-methoxy-2-(5-methyl-4-((1-methylpiperidin-3-yl)amino)pyrido[3,4-d]pyridazin-1-yl)phenol]"
12,3,"CN1CCC[C@@H](Nc2nnc(-c3ccc(C(F)(F)F)cc3O)c3ccncc23)C1 [Example 90, (R)-2-(4-((1-methylpiperidin-3-yl)amino)pyrido[3,4-d]pyridazin-1-yl)-5-(trifluoromethyl)phenol]"
13,307,"CN1CCC[C@@H](Nc2nnc(-c3ccccc3C(F)F)c3ccncc23)C1 [Example 91, (R)-1-(2-(difluoromethyl)phenyl)-N-(1-methylpiperidin-3-yl)pyrido[3,4-d]pyridazin-4-amine]"
14,60,"CN1CCC[C@@H](Nc2nnc(-c3ccc(OC(F)F)cc3F)c3ccncc23)C1 [Example 92, (R)-1-(4-(difluoromethoxy)-2-fluorophenyl)-N-(1-methylpiperidin-3-yl)pyrido[3,4-d]pyridazin-4-amine]"
15,102,"C[C@]1(O)C[C@@H](Nc2nnc(-c3ccc(Cl)cc3O)c3cnccc23)C1 [Example 94, cis-5-chloro-2-(1-((3-hydroxy-3-methylcyclobutyl)amino)pyrido[3,4-d]pyridazin-4-yl)phenol]"
16,2040,"CN1CCc2c(NC3CCCN(C)C3)nnc(-c3ccc(Cl)cc3)c2C1 (centres unmarked) [Example 99, 4-(4-chlorophenyl)-6-methyl-N-(1-methylpiperidin-3-yl)-5,6,7,8-tetrahydropyrido[3,4-d]pyridazin-1-amine]"
17,2690,"CCN1CCc2c(NC3CCCN(C)C3)nnc(-c3ccc(Cl)cc3)c2C1 (centres unmarked) [Example 100, 4-(4-chlorophenyl)-6-ethyl-N-(1-methylpiperidin-3-yl)-5,6,7,8-tetrahydropyrido[3,4-d]pyridazin-1-amine]"
18,804,"CN1CCc2c(-c3ccc(Cl)cc3)nnc(NC3CCCN(C)C3)c2C1 (centres unmarked) [Example 101, 1-(4-chlorophenyl)-6-methyl-N-(1-methylpiperidin-3-yl)-5,6,7,8-tetrahydropyrido[3,4-d]pyridazin-4-amine]"

row,IC50 [nM],Compound
1,692,"CCN1CCc2c(-c3ccc(Cl)cc3)nnc(NC3CCCN(C)C3)c2C1 (centres unmarked) [Example 102, 1-(4-chlorophenyl)-6-ethyl-N-(1-methylpiperidin-3-yl)-5,6,7,8-tetrahydropyrido[3,4-d]pyridazin-4-amine]"
2,3630,"CN1CCCC(Nc2nnc(-c3ccc(Cl)cc3)c3c2CN(C2CC2)CC3)C1 (centres unmarked) [Example 103, 1-(4-chlorophenyl)-6-cyclopropyl-N-(1-methylpiperidin-3-yl)-5,6,7,8-tetrahydropyrido[3,4-d]pyridazin-4-amine]"
3,1660,"CC(=O)N1CCc2c(NC3CCCN(C)C3)nnc(-c3ccc(Cl)cc3)c2C1 (centres unmarked) [Example 104, 1-(4-(4-chlorophenyl)-1-((1-methylpiperidin-3-yl)amino)-7,8-dihydropyrido[3,4-d]pyridazin-6(5H)-yl)ethan-1-one]"
4,955,"CC(=O)N1CCc2c(-c3ccc(Cl)cc3)nnc(NC3CCCN(C)C3)c2C1 (centres unmarked) [Example 105, 1-(1-(4-chlorophenyl)-4-((1-methylpiperidin-3-yl)amino)-7,8-dihydropyrido[3,4-d]pyridazin-6(5H)-yl)ethan-1-one]"
5,3310,"CN1CCCC(Nc2nnc(-c3ccc(Cl)cc3)c3c2CCN(S(C)(=O)=O)C3)C1 (centres unmarked) [Example 106, 4-(4-chlorophenyl)-N-(1-methylpiperidin-3-yl)-6-(methylsulfonyl)-5,6,7,8-tetrahydropyrido[3,4-d]pyridazin-1-amine]"
6,1780,"CN1CCCC(Nc2nnc(-c3ccc(Cl)cc3)c3c2CN(S(C)(=O)=O)CC3)C1 (centres unmarked) [Example 107, 1-(4-chlorophenyl)-N-(1-methylpiperidin-3-yl)-6-(methylsulfonyl)-5,6,7,8-tetrahydropyrido[3,4-d]pyridazin-4-amine]"
7,3160,"CN1CC(Nc2nnc(-c3ccc(Cl)cc3)c3ccccc23)CC(F)(F)C1 (centres unmarked) [Example 108, 4-(4-chlorophenyl)-N-(5,5-difluoro-1-methylpiperidin-3-yl)phthalazin-1-amine]"
8,4900,"CN1CCC(Nc2nnc(-c3ccc(Cl)cc3)c3ccccc23)C1=O (centres unmarked) [Example 109, 3-((4-(4-chlorophenyl)phthalazin-1-yl)amino)-1-methylpyrrolidin-2-one]"
9,4480,"CC(=O)N1CCCC(Nc2nnc(-c3ccc(Cl)cc3)c3ccccc23)C1 (centres unmarked) [Example 110, 1-(3-((4-(4-chlorophenyl)phthalazin-1-yl)amino)piperidin-1-yl)ethan-1-one]"
10,4250,"CN1CCCC(N(C)c2nnc(-c3ccc(Cl)cc3)c3ccccc23)C1 (centres unmarked) [Example 112, 4-(4-chlorophenyl)-N-methyl-N-(1-methylpiperidin-3-yl)phthalazin-1-amine]"
11,2190,"O[C@]1(C(F)(F)F)CCC[C@H](Nc2nnc(-c3ccc(Cl)cc3)c3ccccc23)C1 [Example 115, (1R,3S)-3-((4-(4-chlorophenyl)phthalazin-1-yl)amino)-1-(trifluoromethyl)cyclohexan-1-ol]"
12,912,"O[C@]1(C(F)(F)F)CCC[C@@H](Nc2nnc(-c3ccc(Cl)cc3)c3ccccc23)C1 [Example 116, (1R,3R)-3-((4-(4-chlorophenyl)phthalazin-1-yl)amino)-1-(trifluoromethyl)cyclohexan-1-ol]"
13,624,"O[C@]1(C(F)(F)F)C[C@@H](Nc2nnc(-c3ccc(Cl)cc3)c3ccccc23)C1 [Example 117, trans-3-((4-(4-chlorophenyl)phthalazin-1-yl)amino)-1-(trifluoromethyl)cyclobutan-1-ol]"
14,2750,"C[C@]1(O)C[C@H](Nc2nnc(-c3ccc(Cl)cc3)c3ccccc23)C1 [Example 119, trans-3-((4-(4-chlorophenyl)phthalazin-1-yl)amino)-1-methylcyclobutan-1-ol]"
15,933,"O[C@]1(C(F)(F)F)C[C@H](Nc2nnc(-c3ccc(Cl)cc3)c3ccccc23)C1 [Example 120, cis-3-((4-(4-chlorophenyl)phthalazin-1-yl)amino)-1-(trifluoromethyl)cyclobutan-1-ol]"
16,3980,"C[C@]1(O)CC[C@H](Nc2nnc(-c3ccc(Cl)cc3)c3ccccc23)CC1 [Example 121, trans-4-((4-(4-chlorophenyl)phthalazin-1-yl)amino)-1-methylcyclohexan-1-ol]"
17,2750,"CCN1CCCC1CNc1nnc(-c2ccc(OC)cc2)c2ccccc12 (centres unmarked) [Example 125, N-((1-ethylpyrrolidin-2-yl)methyl)-4-(4-methoxyphenyl)phthalazin-1-amine]"
